Patent US20260242738A1, “ALK5 INHIBITORS FOR EFFICIENT DERIVATION OF MESENCHYMAL STEM CELLS FROM EMBRYONIC STEM CELLS” (SCRIPPS HEALTH, priority 2022, published 2026)
Entries after “also recorded” stand apart in the source; their conditions may differ.

Columns and labels:
Assay type in all cases: cell-based, human
H9 ESC = assay: Flow cytometry of MSC surface markers after ESC to MSC differentiation with ALK-5 inhibitor; conditions: H9 ES-MSC
Description: An overview of the differentiation process is provided in FIG. 1, panel K. To create cell clusters or embryoid bodies of uniform size, ESCs were removed from CellStart culture using Accutase® for 2-5 minutes until single cells were observed. […] After 24 hours, the cell clusters were suspended at 2.5-3×10^5 cells per ml in ultra-low adherent 6 well plates (Corning) in StemPro-34 serum free medium (ThermoFisher) supplemented with 2 mM L-glutamine (ThermoFisher Scientific), 50 μg/ml Ascorbic acid (Stemcell Technologies, Vancouver, Canada) and 1.8 μl/ml ITS-G (100× Insulin-Transferrin-Selenium; ThermoFisher); termed as “complete SP-34 medium”.
The medium was changed every 2 days by removing cell clusters into 15 ml sterile tubes and permitted to gravity settle for 10 minutes at room temperature. Most of the media was removed using a pipette to leave approximately 300-500 μl of medium. Freshly made medium (with the appropriate ALK5 inhibitor or DMSO) was replaced at the same volumes and well number into new ultra-low adherent plates.
After treatment with the appropriate ALK5 inhibitor, the cell clusters were removed by gravity settling and suspended in complete SP-34 medium supplemented with bFGF 20 ng/ml (without any ALK-5 inhibitor or DMSO) and transferred onto fibronectin (FN) coated (10 μg/ml; Fibronectin from human plasma, Sigma-Aldrich, St. Louis, MO) T75 cm^2 flasks (passage zero (P0)). The emerging cells and remaining cell clusters were exposed to Accutase® for 5-10 minutes, gently triturated and counted. The cells were seeded at […] in T75 FN coated flask (P1) and medium changed every 3-4 days until 80-90% confluence. At this point, the cells were detached using Accutase® for continued culture, screened for surface marker phenotype characterization (flow cytometry), placed into 3D cultures to assess chondrogenic differentiation capacity, or preserved in liquid nitrogen.
Cells were detached using Accutase®, washed and suspended in FACS buffer at a concentration of 0.2×10^6 cells per 100 μl. A panel of CD molecules were used, each with the following fluorochromes: CD34-FITC, CD45-BV510, CD73-APC (BioLegend, San Diego, California) CD90-PE-Cy7, and CD105-BV650 (BD Biosciences, Franklin Lakes, New Jersey). Matching isotype control IgGs with the same fluorochrome conjugates were used for background gating. […] Data was acquired with the Novocyte flow cytometer (ACEA Biosciences Inc. San Diego, CA) and analyzed using FlowJo software (version 10, FlowJo, LLC, Ashland, OR) to determine percentage positive signal for each molecule relative to isotype background non-specific signal controls.

HADC 100 ES-MSC = assay: Pellet culture chondrogenesis, histology and immunohistochemistry; conditions: 3 weeks; for cartilage-like tissue formation in high density pellets: HADC 100 ES-MSC, Safranin-O, collagen type I and II
Description: Monolayer-expanded ES-MSC (passage 2-5) were detached using Accutase® and 0.5×10^6 cells in 0.5 ml of chondrogenic medium were centrifuged at 900 rpm (~770 G) for 5 minutes to form high-density pellets. At least 5-6 pellets, for each ES-MSC condition, were cultured in serum-free chondrogenic medium consisting of Dulbecco's Modified Eagle Medium (Mediatech Inc., Manassas, VA), 1×ITS supplement (Sigma-Aldrich, St. Louis, MO), 100 nM Dexamethasone (Sigma), 1.25 mg/ml human serum albumin (Bayer, Leverkusen, Germany), 100 μM ascorbic acid 2-phosphate (Sigma), 1% penicillin/streptomycin/gentamycin (PSG, Gibco, Carlsbad, CA), and 10 ng/ml TGFβ3 (PeproTech, Rocky Hill, NJ). Pellets for ex vivo implantation were cultured for 3 days before implantation; pellets for histologic or gene expression analysis were maintained in culture for 3 weeks with media changes every 3 to 4 days.
Cell pellets and explants were fixed in Z-Fix (3.7% formaldehyde, Anatech Ltd., Battle Creek, MI), processed for embedding in paraffin, and cut into 4 μm-thick sections. Sections were stained with Safranin-O and Fast Green to visualize glycosaminoglycan distribution in the tissues. Alzarin Red S staining was used to detect the presence of mineralized matrix.
For assessment of collagen types I and II, sections were pretreated with pepsin (Digest-All 3, Thermo Fisher Scientific) for 9 minutes at 37° C. in a humid chamber before incubation at 4° C. for 12 to 16 hours with the following primary antibodies: rabbit anti-human collagen type I antibody (Ab 34710, Abcam, Cambridge, MA) 1 μg/ml; or mouse anti-human collagen type II (II-II6B3, Hybridoma Bank, University of Iowa) 2 μg/ml. For color development, the ImmPRESS secondary DAB (brown) or AP (red) kits (Vector Laboratories, Burlingame, CA) was used. Isotype controls were used to monitor non-specific staining.

ES-MSC = ES-MSC on pneumatospun collagen type I scaffold, in vitro culture; conditions: 6 weeks in chondrogenic medium
Source text: ES-MSC derived from treatment with ALK-5 inhibitor SB525334, as described in Example 1, produced meniscus cartilage-like tissues when seeded upon blow spun collagen scaffolds in in vitro and in vivo.

| Compound | CD73 positive cells (H9 ESC; SB431542 10 μM 10 days, N=5) [%] | CD90 positive cells (H9 ESC; SB431542 10 μM 10 days, N=5) [%] | CD105 positive cells (H9 ESC; SB431542 10 μM 10 days, N=5) [%] | triple positive for CD73, CD90 and CD105 (H9 ESC; co-expression analysis) [%] | cartilage-like tissue formation in high density pellets (HADC 100 ES-MSC) | staining for GAGs, collagen type II and collagen type I in pellets compared to the other ALK5 inhibitors (HADC 100 ES-MSC; HADC 100 ES-MSC pellets) | Safranin O staining (GAG deposition) on collagen scaffold (ES-MSC) |
| --- | --- | --- | --- | --- | --- | --- | --- |
| NC(=O)c1ccc(-c2nc(-c3ccc4c(c3)OCO4)c(-c3ccccn3)[nH]2)cc1 [SB431542] | 99±1 | 99±1 | 94±4 | 92±9 | consistently produced cartilage like-tissue |  |  |
| Cc1cccc(-c2[nH]c(C(C)(C)C)nc2-c2ccc3nccnc3c2)n1 [SB525334] |  |  |  |  | also produced cartilage-like tissue | most consistent staining for GAGs and collagen type II, and lower collagen type I signal; also recorded: most uniform GAGs and collagen type II deposition, and with reduced collagen type I | extensive GAG deposition |
